Laboratory results: patent publication US8653100B2 (AbbVie Inc., priority 2008, dated 2014)
Counter-ions that a name gives are not always drawn.

Molecular target: human GlyT1c (Homo sapiens (Human), UniProt P48067)
Assay: [3H]-Glycine uptake into recombinant CHO cells expressing human GlyT1
Assay type: cell-based
Conditions: hGlyT1c_5_CHO cells, 200 nM [3H]-glycine
Protocol: [^3H]-Glycine uptake into recombinant CHO cells expressing human GlyT1: Human GlyT1c expressing recombinant hGlyT1c—5_CHO cells were plated at 20,000 cells per well in 96 well Cytostar-T scintillation microplates (Amersham Biosciences) and cultured to sub-confluency for 24 h. […] The plates were placed in a Wallac Microbeta (PerkinElmer) and continuously counted by solid phase scintillation spectrometry during up to 3 hours. […] IC50 calculations were made by four-parametric logistic nonlinear regression analysis (GraphPad Prism) using determinations within the range of linear increase of [^3H]-glycine incorporation between 60 and 120 min.

Sequence of human GlyT1c (P48067 whole entry): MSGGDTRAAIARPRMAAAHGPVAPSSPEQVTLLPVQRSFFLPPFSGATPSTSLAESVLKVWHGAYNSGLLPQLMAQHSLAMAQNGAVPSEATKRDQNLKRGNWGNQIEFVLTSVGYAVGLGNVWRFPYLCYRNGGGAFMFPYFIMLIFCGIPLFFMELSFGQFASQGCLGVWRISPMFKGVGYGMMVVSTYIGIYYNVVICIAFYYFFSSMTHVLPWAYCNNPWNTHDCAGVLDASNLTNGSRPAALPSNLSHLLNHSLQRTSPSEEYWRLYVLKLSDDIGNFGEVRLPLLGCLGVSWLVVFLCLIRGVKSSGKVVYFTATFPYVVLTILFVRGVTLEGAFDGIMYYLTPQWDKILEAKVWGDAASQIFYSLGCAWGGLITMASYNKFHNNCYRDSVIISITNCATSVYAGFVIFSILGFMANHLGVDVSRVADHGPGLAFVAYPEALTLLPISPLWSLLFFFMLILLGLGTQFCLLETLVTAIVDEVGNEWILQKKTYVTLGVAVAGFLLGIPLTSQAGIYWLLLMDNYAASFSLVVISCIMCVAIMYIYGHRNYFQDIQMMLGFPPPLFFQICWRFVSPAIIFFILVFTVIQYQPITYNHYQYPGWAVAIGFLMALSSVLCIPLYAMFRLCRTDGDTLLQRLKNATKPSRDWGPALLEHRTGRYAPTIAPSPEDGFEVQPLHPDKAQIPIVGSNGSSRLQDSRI

Compound: CCCNc1ccc(S(=O)(=O)NCCOc2ccc3c(c2)C(C2(c4ccc(Cl)cc4)CCC2)NCC3)cn1 (stereo not shown) [Example 59, N-(2-(1-(1-(4-Chlorophenyl)cyclobutyl)-1,2,3,4-tetrahydroisoquinolin-7-yloxy)ethyl)-6-(propylamino)pyridine-3-sulfonamide hydrochloride]
- IC50: ≤ 10000 nM

Compound: CCCS(=O)(=O)NCCOc1ccc2c(c1)C(C(c1ccc(Cl)cc1)C(C)C)NCC2 (stereo not shown) [Example 60, dihydrochloride]
- IC50: ≤ 10000 nM

Compound: O=S(=O)(NCCOc1ccc2c(c1)C(C1(c3ccc(Cl)cc3)CCC1)NCC2)C1CCCNC1 (stereo not shown) [Example 61, N-(2-(1-(1-(4-Chlorophenyl)cyclobutyl)-1,2,3,4-tetrahydroisoquinolin-7-yloxy)ethyl)piperidine-3-sulfonamide dihydrochloride]
- IC50: ≤ 100 nM

Compound: O=S(=O)(NCCOc1ccc2c(c1)C(C1(c3ccc(F)cc3)CCC1)NCC2)c1cccnc1 (stereo not shown) [Example 66, N-[2-({1-[1-(4-Fluorophenyl)cyclobutyl]-1,2,3,4-tetrahydroisoquinolin-7-yl}oxy)ethyl]pyridine-3-sulfonamide hydrochloride]
- IC50: ≤ 100 nM

Compound: CCCS(=O)(=O)NCCOc1ccc2c(c1)C(C1(c3ccc(Cl)cc3)CCC1)NCC2(C)C (stereo not shown) [Example 67, N-[2-({1-[1-(4-Chlorophenyl)cyclobutyl]-4,4-dimethyl-1,2,3,4-tetrahydroisoquinolin-7-yl}oxy)ethyl]propane-1-sulfonamide hydrochloride]
- IC50: ≤ 100 nM

Compound: CCCS(=O)(=O)NCCOc1ccc2c(c1)CCNC2C1(c2ccc(Cl)cc2)CCC1 (stereo not shown) [Example 68, N-[2-({1-[1-(4-Chlorophenyl)cyclobutyl]-1,2,3,4-tetrahydroisoquinolin-6-yl}oxy)ethyl]propane-1-sulfonamide hydrochloride]
- IC50: ≤ 10000 nM

Compound: CCN(CC)S(=O)(=O)NCCOc1ccc2c(c1)C(C1(c3ccc(Cl)cc3)CCC1)NCC2(C)C (stereo not shown) [Example 69, N′-[2-({1-[1-(4-Chlorophenyl)cyclobutyl]-4,4-dimethyl-1,2,3,4-tetrahydroisoquinolin-7-yl}oxy)ethyl]-N,N-diethylsulfuric diamide hydrochloride]
- IC50: ≤ 1000 nM

Compound: CCCS(=O)(=O)NCCOc1ccc2c(c1)C(C1(c3ccc(F)cc3)CCC1)N(C(=O)C(F)(F)F)CC2 (stereo not shown) [Example 70, N-[2-({1-[1-(4-Fluorophenyl)cyclobutyl]-2-(trifluoroacetyl)-1,1,3,4-tetrahydroisoquinolin-7-yl}oxy)ethyl]propane-1-sulfonamide]
- IC50: ≤ 100000 nM

Compound: CCCS(=O)(=O)NCCOc1ccc2c(c1)C(C1(c3ccc(F)cc3)CCC1)N(CC(F)(F)F)CC2 (stereo not shown) [Example 71, N-[2-({1-[1-(4-Fluorophenyl)cyclobutyl]-2-(2,2,2-trifluoroethyl)-1,2,3,4-tetrahydroisoquinolin-7-yl}oxy)ethyl]propane-1-sulfonamide hydrochloride]
- IC50: ≤ 1000 nM

Compound: CCCS(=O)(=O)NCCOc1ccc2c(c1)C(C1(c3ccc(F)cc3)CCC1)N(N=O)CC2 (stereo not shown) [Example 74, N-[2-({1-[1-(4-Fluorophenyl)cyclobutyl]-2-nitroso-1,2,3,4-tetrahydroisoquinolin-7-yl}oxy)ethyl]propane-1-sulfonamide]
- IC50: ≤ 10000 nM

Compound: CCCS(=O)(=O)NCCOc1ccc2c(c1)C(C1(c3ccc(F)cc3)CCC1)N(N)CC2 (stereo not shown) [Example 75, N-[2-({2-Amino-1-[1-(4-fluorophenyl)cyclobutyl]-1,2,3,4-tetrahydroisoquinolin-7-yl}oxy)ethyl]propane-1-sulfonamide]
- IC50: ≤ 1000 nM

Compound: CCCS(=O)(=O)NCCOc1ccc2c(c1)C(C1(c3ccc(Cl)cc3OC)CCC1)NCC2 (stereo not shown) [Example 76, N-[2-({1-[1-(4-Chloro-2-methoxyphenyl)cyclobutyl]-1,2,3,4-tetrahydroisoquinolin-7-yl}oxy)ethyl]propane-1-sulfonamide hydrochloride]
- IC50: ≤ 100 nM

Compound: CCCS(=O)(=O)NCCOc1ccc2c(c1)C(C1(c3cccc(Cl)c3)CCC1)N(CC#N)CC2 (stereo not shown) [Example 77, N-[2-({1-[1-(3-Chlorophenyl)cyclobutyl]-2-(cyanomethyl)-1,2,3,4-tetrahydroisoquinolin-7-yl}oxy)ethyl]propane-1-sulfonamide]
- IC50: ≤ 1000 nM

Compound: CCCS(=O)(=O)NCCOc1ccc2c(c1)C(C1(c3cccc(Cl)c3)CCC1)N(CCN)CC2 (stereo not shown) [Example 78, N-[2-({2-(2-Aminoethyl)-1-[1-(3-chlorophenyl)cyclobutyl]-1,2,3,4-tetrahydroisoquinolin-7-yl}oxy)ethyl]propane-1-sulfonamide bis(trifluoroacetate)]
- IC50: ≤ 10000 nM

Compound: CCCS(=O)(=O)NCCOc1ccc2c(c1)C(C1(c3ccc(F)cc3)CCC1)N(c1ncc[nH]1)CC2 (stereo not shown) [Example 79, N-[2-({1-[1-(4-Fluorophenyl)cyclobutyl]-2-(1H-imidazol-2-yl)-1,2,3,4-tetrahydroisoquinolin-7-yl}oxy)ethyl]propane-1-sulfonamide]
- IC50: ≤ 1000 nM

Compound: CCCS(=O)(=O)NCCOc1ccc2c(c1)C(C1(c3ccc(Cl)cc3)CCC1)N(CC#N)CC2 (stereo not shown) [Example 80, N-[2-({1-[1-(4-cChlorophenyl)cyclobutyl]-2-(cyanomethyl)-1,2,3,4-tetrahydroisoquinolin-7-yl}oxy)ethyl]propane-1-sulfonamide hydrochloride]
- IC50: ≤ 100 nM

Compound: O=S(=O)(CCCOc1ccc2c(c1)C(C1(c3ccc(Cl)cc3)CCC1)NCC2)N1CCOCC1 (stereo not shown) [Example 81, 1-[1-(4-Chlorophenyl)cyclobutyl]-7-[3-(morpholin-4-ylsulfonyl)propoxy]-1,2,3,4-tetrahydroisoquinoline hydrochloride]
- IC50: ≤ 10000 nM

Compound: CCCNS(=O)(=O)CCCOc1ccc2c(c1)C(C1(c3ccc(Cl)cc3)CCC1)NCC2 (stereo not shown) [Example 82, 3-({1-[1-(4-Chlorophenyl)cyclobutyl]-1,2,3,4-tetrahydroisoquinolin-7-yl}oxy)-N-propylpropane-1-sulfonamide hydrochloride]
- IC50: ≤ 1000 nM

Compound: O=S(=O)(NCCOc1ccc2c(c1)C(C1(c3ccc(Cl)cc3)CC1)NCC2)c1cccnc1 (stereo not shown) [Example 85, N-[2-({1-[1-(4-Chlorophenyl)cyclopropyl]-1,2,3,4-tetrahydroisoquinolin-7-yl}oxy)ethyl]pyridine-3-sulfonamide]
- IC50: ≤ 100 nM

Compound: Cn1cc(S(=O)(=O)NCCOc2ccc3c(c2)C(C2(c4ccc(Cl)cc4)CC2)NCC3)cn1 (stereo not shown) [Example 86, N-[2-({1-[1-(4-Chlorophenyl)cyclopropyl]-1,2,3,4-tetrahydroisoquinolin-7-yl}oxy)ethyl]-1-methyl-1H-pyrazole-4-sulfonamide]
- IC50: ≤ 100 nM

Compound: CCCS(=O)(=O)NCCOc1ccc2c(c1)C(C1(c3ccc(Cl)cc3)CC1)NCC2 (stereo not shown) [Example 87, N-[2-({1-[1-(4-Chlorophenyl)cyclopropyl]-1,2,3,4-tetrahydroisoquinolin-7-yl}oxy)ethyl]propane-1-sulfonamide hydrochloride]
- IC50: ≤ 100 nM

Compound: NCCS(=O)(=O)NCCOc1ccc2c(c1)C(C1(c3ccc(Cl)cc3)CCC1)NCC2 (stereo not shown) [Example 154, 2-Amino-N-[2-({1-[1-(4-chlorophenyl)cyclobutyl]-1,2,3,4-tetrahydroisoquinolin-7-yl}oxy)ethyl]ethanesulfonamide]
- IC50: ≤ 1000 nM
